{"source": "patent US6667342B1", "about": "“Benzenesulfonamide-derivatives and their use as medicaments” (Astrazeneca AB, priority 1998, dated 2003)", "origin": "cited, not measured here", "key": {"[1]": {"tested_on": "PDH"}}, "data": [{"smiles": "O=C(O)C(Cl)Cl", "note": "[DCA, dichloroacetic acid]", "values": [{"measurement": "glycaemia", "setting": "Stacpoole et al. 1978", "result": "reducing glycaemia"}, {"measurement": "plasma glucose", "setting": "after repeated administration (Evans and Stacpoole 1982)", "result": "significant decrease"}, {"measurement": "activity of PDH", "setting": "[1]; after acute administration in animals (Vary et al. 1988)", "result": "increases"}, {"measurement": "proportion of PDH in its active form", "setting": "[1]; single administration, 150 mg/kg, intraperitoneally (Vary et al. 1988)", "result": "increased"}]}]}
